In ChEMBL document CHEMBL1909294, “Translating clinical findings into knowledge in drug safety evaluation--drug induced liver injury prediction system (DILIps)” (PLoS Comput Biol, 2011):

How the values were obtained:
Hepatotoxicity [1] = test system: Hepatotoxicity;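 on HepSE cirrhosis: cirrhosis hepatic side effect score taken from the DILIps (drug-induced liver injury prediction) training set; call rule not given here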;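 on HepSE elevated liver function tests: hepatic side effect score for raised liver function tests, as recorded in the DILIps training set used for predicting drug-induced liver injury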;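 on HepSE hepatitis: Hepatitis-related hepatic side effect score taken from the training data of DILIps, a prediction system for drug-induced liver injury; call rule not given here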;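 on HepSE jaundice: Jaundice-related hepatic side-effect score drawn from the training data of the DILIps (drug-induced liver injury prediction system); call rule not given here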; on HepSE liver disease: call rule not given here;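 on HepSE liver fatty: hepatic side effect score for fatty liver, taken from the DILIps training set for predicting drug-induced liver injury; call rule not given here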;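 on HepSE liver function tests abnormal: hepatic side effect score taken from the DILIps (drug-induced liver injury prediction system) training data, here covering abnormal liver function test findings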
Hepatotoxicity [2] = test system: Hepatotoxicity; remark: listed apart in the source;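 on HepSE cirrhosis: cirrhosis hepatic side effect score taken from the DILIps (drug-induced liver injury prediction) training set; call rule not given here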;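 on HepSE elevated liver function tests: hepatic side effect score for raised liver function tests, as recorded in the DILIps training set used for predicting drug-induced liver injury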;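 on HepSE hepatitis: Hepatitis-related hepatic side effect score taken from the training data of DILIps, a prediction system for drug-induced liver injury; call rule not given here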;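 on HepSE jaundice: Jaundice-related hepatic side-effect score drawn from the training data of the DILIps (drug-induced liver injury prediction system); call rule not given here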; on HepSE liver disease: call rule not given here;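 on HepSE liver function tests abnormal: hepatic side effect score taken from the DILIps (drug-induced liver injury prediction system) training data, here covering abnormal liver function test findings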
Hepatotoxicity [3] = test system: Hepatotoxicity; remark: listed apart in the source;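 on HepSE cirrhosis: cirrhosis hepatic side effect score taken from the DILIps (drug-induced liver injury prediction) training set; call rule not given here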;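 on HepSE elevated liver function tests: hepatic side effect score for raised liver function tests, as recorded in the DILIps training set used for predicting drug-induced liver injury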;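 on HepSE hepatitis: Hepatitis-related hepatic side effect score taken from the training data of DILIps, a prediction system for drug-induced liver injury; call rule not given here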;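 on HepSE jaundice: Jaundice-related hepatic side-effect score drawn from the training data of the DILIps (drug-induced liver injury prediction system); call rule not given here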; on HepSE liver disease: call rule not given here;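 on HepSE liver function tests abnormal: hepatic side effect score taken from the DILIps (drug-induced liver injury prediction system) training data, here covering abnormal liver function test findings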
Hepatotoxicity [4] = test system: Hepatotoxicity; remark: listed apart in the source;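 on HepSE cirrhosis: cirrhosis hepatic side effect score taken from the DILIps (drug-induced liver injury prediction) training set; call rule not given here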;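 on HepSE elevated liver function tests: hepatic side effect score for raised liver function tests, as recorded in the DILIps training set used for predicting drug-induced liver injury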;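 on HepSE hepatitis: Hepatitis-related hepatic side effect score taken from the training data of DILIps, a prediction system for drug-induced liver injury; call rule not given here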;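 on HepSE jaundice: Jaundice-related hepatic side-effect score drawn from the training data of the DILIps (drug-induced liver injury prediction system); call rule not given here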; on HepSE liver disease: call rule not given here;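 on HepSE liver function tests abnormal: hepatic side effect score taken from the DILIps (drug-induced liver injury prediction system) training data, here covering abnormal liver function test findings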
Hepatotoxicity [5] = test system: Hepatotoxicity; remark: listed apart in the source; on HepSE liver disease: call rule not given here
Hepatotoxicity [6] = test system: Hepatotoxicity; remark: listed apart in the source; on HepSE liver disease: call rule not given here
Hepatotoxicity [7] = test system: Hepatotoxicity; remark: listed apart in the source
Hepatotoxicity [8] = test system: Hepatotoxicity; remark: listed apart in the source
Hepatotoxicity [9] = test system: Hepatotoxicity; remark: listed apart in the source
Hepatotoxicity [10] = test system: Hepatotoxicity; remark: listed apart in the source
Hepatotoxicity [11] = test system: Hepatotoxicity; remark: listed apart in the source
Hepatotoxicity [12] = test system: Hepatotoxicity; remark: listed apart in the source
Hepatotoxicity [13] = test system: Hepatotoxicity; remark: listed apart in the source
Hepatotoxicity [14] = test system: Hepatotoxicity; remark: listed apart in the source

SMILES | HepSE_cirrhosis (Hepatotoxicity [1]) | HepSE_liver function tests abnormal (Hepatotoxicity [2]) | HepSE_hepatitis (Hepatotoxicity [3]) | HepSE_liver disease (Hepatotoxicity [4]) | HepSE_bilirubinemia (Hepatotoxicity [5]) | HepSE_jaundice (Hepatotoxicity [6]) | HepSE_hepatic necrosis (Hepatotoxicity [7]) | HepSE_elevated liver function tests (Hepatotoxicity [8]) | HepSE_liver fatty (Hepatotoxicity [9]) | HepSE_cholelithiasis (Hepatotoxicity [10]) | HepSE_cholecystitis (Hepatotoxicity [11]) | HepSE_Combined Scores (Hepatotoxicity [12]) | HepSE_hepatomegaly (Hepatotoxicity [13]) | HepSE_hepatic failure (Hepatotoxicity [14])
CNC(=O)c1c(I)c(NC(C)=O)c(I)c(C(=O)O)c1I [IOTHALAMIC ACID] | 0 | 0 | 0 | 0 | 0 | 0 | 0 | 0 | 0 | 0 | 0 | 0 | 0 | 0
O=C(NCC(O)CO)c1c(I)c(C(=O)NCC(O)CO)c(I)c(N(CCO)C(=O)CO)c1I (stereo not drawn) [IOVERSOL] | 0 | 0 | 0 | 0 | 0 | 0 | 0 | 0 | 0 | 0 | 0 | 0 | 0 | 0
CCCCC1=NC2(CCCC2)C(=O)N1Cc1ccc(-c2ccccc2-c2nnn[nH]2)cc1 [IRBESARTAN] | 0 | 0 | 1 | 0 | 0 | 1 | 0 | 1 | 0 | 0 | 0 | 3 | 0 | 0
CCc1c2c(nc3ccc(OC(=O)N4CCC(N5CCCCC5)CC4)cc13)-c1cc3c(c(=O)n1C2)COC(=O)[C@]3(O)CC [IRINOTECAN] | 0 | 0 | 0 | 0 | 0 | 1 | 0 | 0 | 0 | 0 | 0 | 2 | 1 | 0
Cc1cc(C(=O)NNCc2ccccc2)no1 [ISOCARBOXAZID] | 0 | 0 | 0 | 0 | 0 | 0 | 0 | 0 | 0 | 0 | 0 | 0 | 0 | 0
FC(F)OC(Cl)C(F)(F)F (stereo not drawn) [ISOFLURANE] | 0 | 0 | 1 | 0 | 0 | 1 | 1 | 0 | 0 | 0 | 0 | 4 | 0 | 1
NNC(=O)c1ccncc1 [ISONIAZID] | 0 | 0 | 0 | 0 | 1 | 1 | 0 | 0 | 0 | 0 | 0 | 2 | 0 | 0
